Measured values reported in US8436159B2, “Glyphosate resistant class I 5-endolpyruvylshikimate-3-phosphate synthase (EPSPS)” (Monsanto Technology LLC, priority 2003, dated 2013).
Substitutions are numbered along the chain they refer to.

Experiments:
[1] = biological target: T1, maize (Zea mays) class I EPSPS variant TIPM (T102I, P106M), pMON42484 (Zea mays, UniProt O24566, P106M/T102I); assay: EPSPS steady-state kinetics, TIPM variant; format: biochemical
T1 construct: pMON42484
T1 sequence (O24566 1-444 T102I/P106M): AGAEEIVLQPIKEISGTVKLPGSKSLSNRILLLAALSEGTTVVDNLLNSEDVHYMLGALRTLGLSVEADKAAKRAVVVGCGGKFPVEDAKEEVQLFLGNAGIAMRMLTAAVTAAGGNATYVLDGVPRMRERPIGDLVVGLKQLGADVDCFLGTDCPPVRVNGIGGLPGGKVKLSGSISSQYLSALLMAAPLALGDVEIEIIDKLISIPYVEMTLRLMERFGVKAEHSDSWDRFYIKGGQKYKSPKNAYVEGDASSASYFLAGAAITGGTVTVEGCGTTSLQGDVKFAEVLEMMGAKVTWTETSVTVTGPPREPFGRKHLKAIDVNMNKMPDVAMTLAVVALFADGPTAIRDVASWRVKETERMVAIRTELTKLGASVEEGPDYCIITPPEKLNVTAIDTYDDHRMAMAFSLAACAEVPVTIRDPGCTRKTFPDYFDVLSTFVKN
From the text: (§1) The double variants of the present invention were made using pMON58452 (FIG. 5) as the template. This pMON58452 EPSPS gene template contains the maize EPSPS double variant T102I, P106T (TIPT) that was constructed by mutagenesis of pMON70467 with the mutagenesis primers mEmut-9-U and mEmut-10-L. The various mutagenesis primer sequences were designed and then were synthesized by Invitrogen Corp., Custom Primers and used in combination in a PCR to create the variant EPSPS coding sequences. The PCR was set up in a 50 μl reaction in the following manner: dH2O 38 μl; 2 mM dNTP 1 μL; 10× buffer 5 μL; pMON58452 1 μL (10 ng); primer-U 2 μL; primer-L 2 μL; pfu Turbo enzyme 1 μL. PCR was carried out on a MJ Research PTC-200 thermal cycler using the following program: Step 1—94° C. for 30 seconds; Step 2—94° C. for 30 seconds; Step 3—55° C. for 1 minute; Step 4—68° C. for 14 minute; Step 5—go to step 2, 16 times; Step 6—End. At the end of the PCR, 1 μl of the restriction enzyme DpnI was added to each 50 μl of PCR reaction and the mixture was incubated at 37° C. for 1 hour. […]

[2] = biological target: T2, maize (Zea mays) class I EPSPS variant TIPV (T102I, P106V), pMON42482 (Zea mays, UniProt O24566, P106V/T102I); assay: EPSPS steady-state kinetics, TIPV variant; format: biochemical
T2 construct: pMON42482
T2 sequence (O24566 1-444 T102I/P106V): T1 sequence (O24566 1-444 T102I/P106M) with M106V
From the text: as §1

O=C(O)CNCP(=O)(O)O [glyphosate, N-phosphonomethylglycine]
Ki [1]: 37.2 ± 1.5 mM | Ki [2]: 1.6 ± 0.4 mM
